Source: US9567326B2, “Pyrimidine compounds for the treatment of cancer” (THE UNIVERSITY OF NORTH CAROLINA AT CHAPEL HILL, priority 2012, dated 2017)

Target: T1, Mer (Homo sapiens, UniProt Q12866)
T1 sequence (Q12866 21-999): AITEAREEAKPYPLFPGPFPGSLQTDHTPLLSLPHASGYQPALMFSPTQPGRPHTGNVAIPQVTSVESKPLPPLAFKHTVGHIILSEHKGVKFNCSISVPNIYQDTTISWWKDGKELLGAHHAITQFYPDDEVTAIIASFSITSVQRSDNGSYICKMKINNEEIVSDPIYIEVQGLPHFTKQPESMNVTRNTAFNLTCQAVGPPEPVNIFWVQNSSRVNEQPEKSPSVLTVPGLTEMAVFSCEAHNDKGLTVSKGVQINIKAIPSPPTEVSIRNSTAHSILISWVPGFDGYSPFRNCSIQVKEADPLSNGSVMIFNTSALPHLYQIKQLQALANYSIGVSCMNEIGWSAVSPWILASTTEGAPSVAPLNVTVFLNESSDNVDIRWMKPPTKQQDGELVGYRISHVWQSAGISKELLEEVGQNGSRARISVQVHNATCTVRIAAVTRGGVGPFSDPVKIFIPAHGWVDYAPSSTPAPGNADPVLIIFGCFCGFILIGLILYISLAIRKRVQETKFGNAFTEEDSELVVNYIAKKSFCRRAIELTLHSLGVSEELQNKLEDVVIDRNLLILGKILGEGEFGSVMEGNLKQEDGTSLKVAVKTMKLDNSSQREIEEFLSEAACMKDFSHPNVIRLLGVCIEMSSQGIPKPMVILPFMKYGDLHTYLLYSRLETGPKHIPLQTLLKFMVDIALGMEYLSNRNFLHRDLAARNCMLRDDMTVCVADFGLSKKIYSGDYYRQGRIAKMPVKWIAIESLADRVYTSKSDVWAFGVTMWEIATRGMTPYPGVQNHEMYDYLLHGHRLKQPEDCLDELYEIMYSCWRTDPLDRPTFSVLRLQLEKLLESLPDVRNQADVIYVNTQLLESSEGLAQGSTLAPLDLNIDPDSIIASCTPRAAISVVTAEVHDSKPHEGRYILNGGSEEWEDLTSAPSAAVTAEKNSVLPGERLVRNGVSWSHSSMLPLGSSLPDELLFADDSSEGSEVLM
Test: Mer IC50
Format: biochemical

| IC50 (Table 3 (General Procedure C compounds)) [µM] | IC50 (Table 7 (General Procedure G compounds)) [µM] | Structure (SMILES) |
| --- | --- | --- |
| < 0.01 |  | CCCCNc1ncc(-c2ccc(C(=O)NC3CCN(C(=O)OC(C)(C)C)CC3)cn2)c(NC2CCC(O)CC2)n1 (centres unmarked) [UNC1898A] |
|  | < 0.01 | CCCCNc1ncc(-c2cncc(N)n2)c(N[C@H]2CC[C@H](O)CC2)n1 [UNC3118A] |
